{"source": "ChEMBL document CHEMBL5360592", "about": "“Ursane-Type Triterpenes with a Phenylpropanoid Unit from Camellia ptilosperma and Evaluation of Their Cytotoxic Activities” (J Nat Prod, 2023)", "type_in_all_cases": "functional, cell-based", "key": {"[1]": {"system": "HeLa", "test": "Cytotoxicity against human HeLa cells assessed as inhibition of cell growth incubated for 24 hrs by MTT assay"}, "[2]": {"system": "NCI-H460", "test": "Cytotoxicity against human NCI-H460 cells assessed as inhibition of cell growth incubated for 24 hrs by MTT assay", "conditions": "NCI-H460, 24 h"}, "[3]": {"system": "MDA-MB-231", "test": "Cytotoxicity against human MDA-MB-231 cells assessed as inhibition of cell growth incubated for 24 hrs by MTT assay", "conditions": "MDA-MB-231, 24 h"}, "[4]": {"system": "A549", "test": "Cytotoxicity against human A549 cells assessed as inhibition of cell growth incubated for 24 hrs by MTT assay", "conditions": "A549, 24 h"}, "[5]": {"system": "HCT-116", "test": "Cytotoxicity against human HCT-116 cells assessed as inhibition of cell growth incubated for 24 hrs by MTT assay", "conditions": "HCT-116, 24 h"}, "[6]": {"system": "HT-29", "test": "Cytotoxicity against human HT-29 cells assessed as inhibition of cell growth incubated for 24 hrs by MTT assay", "conditions": "HT-29, 24 h"}, "[7]": {"test": "Cytotoxicity against mouse LL2 cells assessed as inhibition of cell growth incubated for 24 hrs by MTT assay", "conditions": "Lewis lung carcinoma"}, "[8]": {"system": "CT26", "test": "Cytotoxicity against mouse CT26 cells assessed as inhibition of cell growth incubated for 24 hrs by MTT assay", "conditions": "CT26, 24 h"}, "[9]": {"test": "Cytotoxicity against mouse Hepa1-6 cells assessed as inhibition of cell growth incubated for 24 hrs by MTT assay", "conditions": "Hepa1-6, 24 h"}}, "data": [{"smiles": "COc1cc([C@H]2O[C@@H]3C(=C4[C@@H]5[C@@H](C)[C@H](C)CC[C@]5(C)CC[C@@]4(C)[C@]4(C)CC[C@H]5C(C)(C)[C@@H](O)CC[C@]5(C)[C@@H]34)O[C@@H]2CO)ccc1O", "values": [{"measurement": "IC50", "setting": "[1]", "value": 5.2, "unit": "µM"}, {"measurement": "IC50", "setting": "[2]", "value": "> 10", "unit": "µM"}, {"measurement": "IC50", "setting": "[3]", "value": 2.2, "unit": "µM"}, {"measurement": "IC50", "setting": "[4]", "value": "> 10", "unit": "µM"}, {"measurement": "IC50", "setting": "[5]", "value": 5.7, "unit": "µM"}, {"measurement": "IC50", "setting": "[6]", "value": 6.8, "unit": "µM"}, {"measurement": "IC50", "setting": "[7]", "value": "> 10", "unit": "µM"}, {"measurement": "IC50", "setting": "[8]", "value": 7.5, "unit": "µM"}, {"measurement": "IC50", "setting": "[9]", "value": 4.7, "unit": "µM"}]}, {"smiles": "COC(=O)[C@]1(C)[C@@H]2CC[C@]3(C)[C@H]([C@@H]4O[C@H](CO)[C@@H](c5ccc(O)c(OC)c5)OC4=C4[C@@H]5[C@@H](C)[C@H](C)CC[C@]5(C)CC[C@]43C)[C@@]2(C)CC[C@@H]1O", "values": [{"measurement": "IC50", "setting": "[1]", "value": "> 10", "unit": "µM"}, {"measurement": "IC50", "setting": "[2]", "value": "> 10", "unit": "µM"}, {"measurement": "IC50", "setting": "[3]", "value": "> 10", "unit": "µM"}, {"measurement": "IC50", "setting": "[4]", "value": "> 10", "unit": "µM"}, {"measurement": "IC50", "setting": "[5]", "value": "> 10", "unit": "µM"}, {"measurement": "IC50", "setting": "[6]", "value": "> 10", "unit": "µM"}, {"measurement": "IC50", "setting": "[7]", "value": "> 10", "unit": "µM"}, {"measurement": "IC50", "setting": "[8]", "value": 8.2, "unit": "µM"}, {"measurement": "IC50", "setting": "[9]", "value": "> 10", "unit": "µM"}]}, {"smiles": "COC(=O)[C@@]1(C)[C@@H]2CC[C@]3(C)[C@H]([C@@H]4O[C@H](C)[C@@H](c5ccc(O)c(OC)c5)OC4=C4[C@@H]5[C@@H](C)[C@H](C)CC[C@]5(C)CC[C@]43C)[C@@]2(C)CC[C@@H]1O", "values": [{"measurement": "IC50", "setting": "[1]", "value": "> 10", "unit": "µM"}, {"measurement": "IC50", "setting": "[2]", "value": "> 10", "unit": "µM"}, {"measurement": "IC50", "setting": "[3]", "value": 9.3, "unit": "µM"}, {"measurement": "IC50", "setting": "[4]", "value": "> 10", "unit": "µM"}, {"measurement": "IC50", "setting": "[5]", "value": 7.5, "unit": "µM"}, {"measurement": "IC50", "setting": "[6]", "value": "> 10", "unit": "µM"}, {"measurement": "IC50", "setting": "[7]", "value": "> 10", "unit": "µM"}, {"measurement": "IC50", "setting": "[8]", "value": "> 10", "unit": "µM"}, {"measurement": "IC50", "setting": "[9]", "value": "> 10", "unit": "µM"}]}, {"smiles": "COc1cc([C@H]2OC3=C4[C@@H]5[C@@H](C)[C@H](C)CC[C@]5(C)CC[C@@]4(C)[C@]4(C)CC[C@H]5C(C)(C)[C@@H](O)CC[C@]5(C)[C@H]4[C@@H]3O[C@@H]2CO)ccc1O", "values": [{"measurement": "IC50", "setting": "[1]", "value": 0.7, "unit": "µM"}, {"measurement": "IC50", "setting": "[2]", "value": "> 10", "unit": "µM"}, {"measurement": "IC50", "setting": "[3]", "value": 2.7, "unit": "µM"}, {"measurement": "IC50", "setting": "[4]", "value": "> 10", "unit": "µM"}, {"measurement": "IC50", "setting": "[5]", "value": 1.4, "unit": "µM"}, {"measurement": "IC50", "setting": "[6]", "value": 5.1, "unit": "µM"}, {"measurement": "IC50", "setting": "[7]", "value": "> 10", "unit": "µM"}, {"measurement": "IC50", "setting": "[8]", "value": "> 10", "unit": "µM"}, {"measurement": "IC50", "setting": "[9]", "value": 2.7, "unit": "µM"}]}, {"smiles": "COC(=O)[C@@]1(C)[C@@H]2CC[C@]3(C)[C@H]([C@@H]4O[C@@H](c5ccc(O)c(OC)c5)[C@@H](C)OC4=C4[C@@H]5[C@@H](C)[C@H](C)CC[C@]5(C)CC[C@]43C)[C@@]2(C)CC[C@@H]1O", "values": [{"measurement": "IC50", "setting": "[1]", "value": 8.1, "unit": "µM"}, {"measurement": "IC50", "setting": "[2]", "value": "> 10", "unit": "µM"}, {"measurement": "IC50", "setting": "[3]", "value": "> 10", "unit": "µM"}, {"measurement": "IC50", "setting": "[4]", "value": "> 10", "unit": "µM"}, {"measurement": "IC50", "setting": "[5]", "value": "> 10", "unit": "µM"}, {"measurement": "IC50", "setting": "[6]", "value": 8.5, "unit": "µM"}, {"measurement": "IC50", "setting": "[7]", "value": "> 10", "unit": "µM"}, {"measurement": "IC50", "setting": "[8]", "value": "> 10", "unit": "µM"}, {"measurement": "IC50", "setting": "[9]", "value": 4.1, "unit": "µM"}]}, {"smiles": "COC(=O)[C@@]1(C)[C@@H]2CC[C@]3(C)[C@H]([C@@H]4O[C@H](c5ccc(O)c(OC)c5)[C@@H](C)OC4=C4[C@@H]5[C@@H](C)[C@H](C)CC[C@]5(C)CC[C@]43C)[C@@]2(C)CC[C@@H]1O", "values": [{"measurement": "IC50", "setting": "[1]", "value": "> 10", "unit": "µM"}, {"measurement": "IC50", "setting": "[2]", "value": "> 10", "unit": "µM"}, {"measurement": "IC50", "setting": "[3]", "value": 4.9, "unit": "µM"}, {"measurement": "IC50", "setting": "[4]", "value": "> 10", "unit": "µM"}, {"measurement": "IC50", "setting": "[5]", "value": 8.2, "unit": "µM"}, {"measurement": "IC50", "setting": "[6]", "value": "> 10", "unit": "µM"}, {"measurement": "IC50", "setting": "[7]", "value": "> 10", "unit": "µM"}, {"measurement": "IC50", "setting": "[8]", "value": 9.1, "unit": "µM"}, {"measurement": "IC50", "setting": "[9]", "value": "> 10", "unit": "µM"}]}]}
